Laboratory results: patent US20240309003A1, “HETEROCYCLIC COMPOUNDS AS TRIGGERING RECEPTOR EXPRESSED ON MYELOID CELLS 2 AGONISTS AND METHODS OF USE” (Vigil Neuroscience, Inc., priority 2021, published 2024)

Target: T1, human TREM2 (Homo sapiens, UniProt Q9NZC2)
T1 construct: expressed in transfected cells; host or cells: HEK293T
Experiment: TREM2 agonist potency by cellular phosphorylation of Syk (AlphaLisa) in HEK293T-hTREM2 cells
Type: cell-based
Method in brief: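 Agonist EC50 from a variable-slope four-parameter fit of % activation, based on AlphaLisa phospho-Syk levels in lysates. Cells: HEK293T-hTREM2 (with DAP12), treated 45 min at room temperature with compound in assay buffer.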

[1] = HEK293 cells expressing human TREM2 and DAP12, Table D
[2] = HEK293 cells expressing human TREM2 and DAP12, Table D-2

T1 sequence (Q9NZC2 19-230): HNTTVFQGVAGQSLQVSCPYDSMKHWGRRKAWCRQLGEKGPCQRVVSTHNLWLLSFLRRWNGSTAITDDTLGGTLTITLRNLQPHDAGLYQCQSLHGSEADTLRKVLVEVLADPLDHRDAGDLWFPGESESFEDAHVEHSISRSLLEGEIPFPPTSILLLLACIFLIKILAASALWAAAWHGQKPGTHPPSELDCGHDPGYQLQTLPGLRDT
T1 sequence (O43914 22-113 partner): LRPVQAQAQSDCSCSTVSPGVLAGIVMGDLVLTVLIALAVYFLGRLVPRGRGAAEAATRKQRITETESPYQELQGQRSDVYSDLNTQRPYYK

| SMILES | EC50 [1] [nM] | EC50 [2] [nM] |
| --- | --- | --- |
| [2H]C([2H])([2H])c1nc2nc([C@@H]3CCO[C@H](c4ccnc(C)c4)C3)nc(-c3ccc(Cl)c(F)c3F)c2nc1C([2H])([2H])[2H] [Example 136, 4-(4-chloro-2,3-difluorophenyl)-6,7-bis(methyl-d3)-2-((2S,4R)-2-(2-methylpyridin-4-yl)tetrahydro-2H-pyran-4-yl)pteridine] | < 50 |  |
| Cc1cc([C@H]2C[C@@H](c3nc(-c4cc(F)c(Cl)c(F)c4)c4nc(C)c(C)nc4n3)CCO2)ccn1 [Example 133, 4-(4-chloro-3,5-difluorophenyl)-6,7-dimethyl-2-((2R,4S)-2-(2-methylpyridin-4-yl)tetrahydro-2H-pyran-4-yl)pteridine] | < 50 |  |
| Cc1cnc2c(-c3ccc(Cl)cc3F)nc([C@H]3C[C@@H](C)O[C@@H](c4cnn(C5CC5)c4)C3)nc2n1 [Example 129, 4-(4-chloro-2-fluorophenyl)-2-((2R,4S,6R)-2-(1-cyclopropyl-1H-pyrazol-4-yl)-6-methyltetrahydro-2H-pyran-4-yl)-7-methylpteridine] | 50 to 500 |  |
| Cc1cc(F)c(-c2nc([C@H]3CCO[C@@H](c4cnn(C5CC5)c4)C3)nc3nc(C)c(C)nc23)cc1F [Example I-1572, 2-[(2R,4S)-2-(1-cyclopropylpyrazol-4-yl)tetrahydropyran-4-yl]-4-(2,5-difluoro-4-methyl-phenyl)-6,7-dimethyl-pteridine] |  | < 50 |
| Cc1cc([C@@H]2C[C@H](c3cc(-c4ccc(Cl)c(F)c4F)c4cc(C)c(C)nc4n3)CCO2)ccn1 [Example 187, 5-(4-chloro-2,3-difluorophenyl)-2,3-dimethyl-7-((2S,4R)-2-(2-methylpyridin-4-yl)tetrahydro-2H-pyran-4-yl)-1,8-naphthyridine] | < 50 |  |
| Cc1nc2nc([C@H]3CCO[C@@H](c4cnn(C56CC(C5)C6)c4)C3)nc(-c3ccc(F)cc3F)c2nc1C [Example I-1668, 2-[(2R,4S)-2-[1-(1-bicyclo [1.1.1]pentanyl)pyrazol-4-yl]tetrahydropyran-4-yl]-4-(2,4-difluorophenyl)-6,7-dimethyl-pteridine] |  | < 50 |
| [2H]C1([2H])C[C@H](c2nc(-c3ccc(F)cc3F)c3nc(C)c(C)nc3n2)C[C@H](c2cnn(C3CC3)c2)O1 [Example 171, 2-((2R,4S)-2-(1-cyclopropyl-1H-pyrazol-4-yl)tetrahydro-2H-pyran-4-yl-6,6-d2)-4-(2,4-difluorophenyl)-6,7-dimethylpteridine] | 50 to 500 |  |
| Cc1nc2nc([C@H]3CCO[C@@H](c4ccc(=O)n(C)c4)C3)nc(-c3ccc(F)cc3F)c2nc1C [Example 201] | 500 to 3000 |  |
| Cc1nc2nc(N3C[C@@H](C)O[C@@H](c4cnn(C5CC5)c4)C3)nc([C@H]3C[C@H](OC(F)(F)F)C3)c2nc1C [Example I-1729, (2S,6R)-2-(1-cyclopropylpyrazol-4-yl)-4-[6,7-dimethyl-4-[3-(trifluoromethoxy)cyclobutyl]pteridin-2-yl]-6-methyl-morpholine] |  | < 50 |
| Cc1nc2nc([C@H]3CCO[C@@H](c4cnn(C5CC5)c4)C3)nc(-c3ccc(C4CCC4)cc3F)c2nc1C [Example I-1182, 4-(4-cyclobutyl-2-fluoro-phenyl)-2-[(2R,4S)-2-(1-cyclopropylpyrazol-4-yl)tetrahydropyran-4-yl]-6,7-dimethyl-pteridine] |  | 500 to 3000 |
| [2H]C1([2H])C[C@@H](c2nc(-c3ccc(Cl)cc3F)c3nc(C)c(C)nc3n2)C[C@@]([2H])(c2cnn(C3CC3)c2)O1 [Example 193, 4-(4-chloro-2-fluorophenyl)-2-((2S,4R)-2-(1-cyclopropyl-1H-pyrazol-4-yl)tetrahydro-2H-pyran-4-yl-2,6,6-d3)-6,7-dimethylpteridine] | 50 to 500 |  |
| [2H]C1([2H])C[C@@H](c2nc(-c3ccc(Cl)cc3F)c3nc(C)c(C)nc3n2)C[C@@H](c2cnn(C3CC3)c2)O1 [Example 189, 4-(4-chloro-2-fluorophenyl)-2-((2S,4R)-2-(1-cyclopropyl-1H-pyrazol-4-yl)tetrahydro-2H-pyran-4-yl-6,6-d2)-6,7-dimethylpteridine] | 50 to 500 |  |
| COCn1cc([C@H]2CN(c3nc(-c4ccc(F)cc4F)c4nc(C)c(C)nc4n3)C[C@@H](C3CC3)O2)cn1 [Example I-1736, (2R,6S)-2-cyclopropyl-4-[4-(2,4-difluorophenyl)-6,7-dimethyl-pteridin-2-yl]-6-[1-(methoxymethyl)pyrazol-4-yl]morpholine] |  | < 50 |
| Cc1nc2nc(N3CCO[C@H](c4cc[nH]c(=O)c4)C3)nc(C34CC(C(F)(F)F)(C3)C4)c2nc1C [Example 199, (R)-4-(4-(6,7-dimethyl-4-(3-(trifluoromethyl)bicyclo[1.1.1]pentan-1-yl)pteridin-2-yl)morpholin-2-yl)pyridin-2(1H)-one] | 50 to 500 |  |
| Cc1cc([C@@H]2CN(c3nc(-c4ccc(Cl)cc4F)c4nc(C)c(C)nc4n3)CCO2)no1 [Example I-1270, 4-[4-(4-chloro-2-fluoro-phenyl)-6,7-dimethyl-pteridin-2-yl]-2-(5-methylisoxazol-3-yl)morpholine] |  | 50 to 500 |
| Cc1nc2nc([C@H]3CCO[C@@H](c4cccn(C)c4=O)C3)nc(-c3ccc(F)cc3F)c2nc1C [Example 203] | 3000 to 100000 |  |
| Cc1ccc(-c2nc(N3C[C@@H](C)O[C@@H](c4cnn(C5CC5)c4)C3)nc3nc(C)c(C)nc23)s1 [Example 244, (2S,6R)-2-(1-cyclopropyl-1H-pyrazol-4-yl)-4-(6,7-dimethyl-4-(5-methylthiophen-2-yl)pteridin-2-yl)-6-methylmorpholine] | 50 to 500 |  |
| Fc1ccc(-c2nc([C@H]3CCO[C@@H](c4cnn(C5CC5)c4)C3)cc3nc4c(nc23)COC4)c(F)c1 [Example 238, 7-((2R,4S)-2-(1-cyclopropyl-1H-pyrazol-4-yl)tetrahydro-2H-pyran-4-yl)-5-(2,4-difluorophenyl)-1,3-dihydrofuro[3,4-b]pyrido[3,4-e]pyrazine] | 50 to 500 |  |
| COc1ccc([C@H]2C[C@@H](c3nc(-c4ccc(F)cc4F)c4nc(C)c(C)nc4n3)CCO2)cn1 [Example 163, 4-(2,4-difluorophenyl)-2-((2R,4S)-2-(6-methoxypyridin-3-yl)tetrahydro-2H-pyran-4-yl)-6,7-dimethylpteridine] | 50 to 500 |  |
| COCn1cc([C@H]2CN(c3nc(-c4ccc(Cl)cc4F)c4nc(C)c(C)nc4n3)C[C@@H](C)O2)cn1 [Example I-1446, (2S,6R)-4-[4-(4-chloro-2-fluoro-phenyl)-6,7-dimethyl-pteridin-2-yl]-2-[1-(methoxymethyl)pyrazol-4-yl]-6-methyl-morpholine] |  | < 50 |
| Cc1nc2nc([C@H]3CCO[C@@H](c4cnn(C5CC5)c4)C3)nc(-c3ccc(Cl)cc3F)c2nc1OCCF [Example I-1283, 4-(4-chloro-2-fluoro-phenyl)-2-[(2R,4S)-2-(1-cyclopropylpyrazol-4-yl)tetrahydropyran-4-yl]-6-(2-fluoroethoxy)-7-methyl-pteridine] |  | < 50 |
| Cc1nc2c(-c3ccc(C(F)(F)F)cc3F)cn([C@H]3CCO[C@@H](c4cnn(C5CC5)c4)C3)c(=O)c2nc1C [Example I-1567, 6-[(2R,4S)-2-(1-cyclopropyl-1H-pyrazol-4-yl)tetrahydro-2H-pyran-4-yl]-8-[2-fluoro-4-(trifluoromethyl)phenyl]-2,3-dimethylpyrido[3,4-b]pyrazin-5(6H)-one] |  | 3000 to 100000 |
| Cc1nc2nc([C@H]3CCO[C@@H](c4cnn(C5CC5)c4)C3)nc(-c3ccc(Cl)cc3F)c2nc1C(F)F [Example I-1099, 4-(4-chloro-2-fluoro-phenyl)-2-[(2R,4S)-2-(1-cyclopropylpyrazol-4-yl)tetrahydropyran-4-yl]-6-(difluoromethyl)-7-methyl-pteridine] |  | < 50 |
| Cc1nc2nc([C@@H]3CCO[C@H](c4cnn(C5CC5)c4)C3)nc(-c3cc(F)c(F)cc3F)c2nc1C [Example 152, 2-((2S,4R)-2-(1-cyclopropyl-1H-pyrazol-4-yl)tetrahydro-2H-pyran-4-yl)-6,7-dimethyl-4-(2,4,5-trifluorophenyl)pteridine] | 500 to 3000 |  |
| Cc1cc2c(-c3ccc(F)cc3F)nc(N3C[C@@H](C)O[C@@H](c4cn(C)cn4)C3)nc2nc1C [Example I-1260, (2R,6R)-4-[4-(2,4-difluorophenyl)-6,7-dimethyl-pyrido[2,3-d]pyrimidin-2-yl]-2-methyl-6-(1-methylimidazol-4-yl)morpholine; formic acid] |  | 500 to 3000 |
| Cc1nc2nc([C@@H]3C[C@@H](C)O[C@@H](c4cnn(C5CC5)c4)C3)nc(-c3cc(F)c(F)cc3F)c2nc1C [Example 158, 2-((2R,4R,6R)-2-(1-cyclopropyl-1H-pyrazol-4-yl)-6-methyltetrahydro-2H-pyran-4-yl)-6,7-dimethyl-4-(2,4,5-trifluorophenyl)pteridine] | 50 to 500 |  |
| Cc1cnc2c(-c3ccc(Cl)cc3F)nc(N3C[C@@H](C)O[C@@H](c4cnn(C5CC5)c4)C3)nc2n1 (racemic) [Example 70, 4-(4-(4-chloro-2-fluorophenyl)-7-methylpteridin-2-yl)-2-(1-cyclopropyl-1H-pyrazol-4-yl)-6-methylmorpholine] | < 50 |  |
| Cc1cc2c(-c3ccc(Cl)cc3F)cc([C@H]3CCO[C@@H](c4cnn(C5CC5)c4)C3)nc2nc1C [Example 233, 5-(4-chloro-2-fluoro-phenyl)-7-[(2R,4S)-2-(1-cyclopropylpyrazol-4-yl)tetrahydropyran-4-yl]-2,3-dimethyl-1,8-naphthyridine] | < 50 |  |
| Cc1nc2nc(N3C[C@@H](c4cnn(C)c4)O[C@@H](C4CC4)C3)nc(-c3ccc(F)cc3F)c2nc1C [Example I-1674, (2S,6R)-2-cyclopropyl-4-[4-(2,4-difluorophenyl)-6,7-dimethyl-pteridin-2-yl]-6-(1-methylpyrazol-4-yl)morpholine] |  | 50 to 500 |
| Cc1nc2nc(N3CCO[C@H](c4cc[nH]c(=O)c4)C3)nc(-c3ccc(C(F)(F)F)nc3)c2nc1C [Example 196, (R)-4-(4-(6,7-dimethyl-4-(6-(trifluoromethyl)pyridin-3-yl)pteridin-2-yl)morpholin-2-yl)pyridin-2(1H)-one] | 50 to 500 |  |
